These results are taken from patent US20040110678A1, “Novel drug delivery system” (priority 2001, published 2004).

In brackets after ≈: the same amount, converted by molar mass. Read-outs that look alike come from different tables or passages of the source. Where a SMILES comes first, the peptide text is derived from it. The star is where a group is joined. Palmitoyl = CCCCCCCCCCCCCCCC(=O)*; Myristoyl = CCCCCCCCCCCCCC(=O)*

Series [1] concerns Escherichia coli 0111-NCTC 8007. It counts as cell-based. As to conditions: for Minimum Inhibitory Concentration E. coli: NCTC 8007. As to the method:
(§1) Staphylococcus aureus NCTC Oxford and Escherichia coli 0111-NCTC 8007 strains were obtained from the National Collection of Type Cultures, Colindale, UK MIC for each sample was determined in 96 well plates. The above sample in PBS was serially diluted in microtitre wells with media, RPMI-1640 to give concentrations from 2 mg/ml to 0.00375 mg/ml or from 1 mg/ml to 0.00375 mg/ml or from 0.5 mg/ml to 0.00375 mg/ml of RH01 in a final volume of 100 μl. Bacteria were incubated at 37° C. overnight in standard media to give approximately 10^8 bacteria/ml and 10 μl of this was added to each well. The plates were incubated at 37° C. overnight, and bacterial growth determined by formation of a pellet.
(§2) Staphylococcus aureus NCTC Oxford and Escherichia coli 0111-NCTC 8007 strains were obtained from the National Collection of Type Cultures, Colindale, UK. The MIC for each sample was determined in 96 well plates. The RH01 in PBS (see above) was serially diluted in microtitre wells with media (RPMI-1640) to give final concentrations of 2 mg/ml to 0.00375 mg/ml of RH01 in a final volume of 100 μl. Bacteria were incubated at 37° C. overnight in standard media to give approximately 10^8 bacteria/ml and 10 μl of this was added to each well. The plates were incubated at 37° C. overnight, and bacterial growth determined by formation of a pellet.

The test system of series [2] is Staphylococcus aureus NCTC Oxford. Description: microbe, parasite or virus in culture. It is filed as cell-based. To be noted: for MIC: read-out: MIC S. aureus. As to the method: as §1, §2
The subject of a further series is Pronase®. It counts as in vitro ADME.
Another series deals with T1, HSAff (Homo sapiens, UniProt P02768).
T1 construct: purchased Sigma-Aldrich Company Ltd catalogue number not given; lot 32H9300
Description: Displacement of albumin-bound diazepam from HSAff-diazepam (1:1) monitored by induced CD. It counts as binding. As for the experimental part:
Diazepam (0.088 mg) was dissolved by sonication for 30 mins in distilled water (0.687 ml). Sodium palmitate (0.872 mg) was dissolved in water pH 8.8 (0.698 ml) by sonicating for 5 mins. […] The CD spectrum of the mixture was then recorded. Sodium palmitate (51 μl) was added to the cell and the mixture was gently mixed by rotating the cell several times. The CD spectrum of the mixture was recorded. This process was repeated twice over, each time the CD spectrum was recorded. The cell was then washed thoroughly with distilled water and ethanol. Distilled water (2.705 ml) was then placed in the 5 cm cell and CD spectrum recorded.
CD spectra were recorded with nitrogen flushed JASCO spectropolarimeter J600 using 4 s time constant, 10 nm/min scan speed and a spectral bandwidth of 2 nm. The induced CD spectra of bound diazepam were obtained by subtracting the spectrum of albumin from that of the HSA-diazepam mixture. The spectra were reported as Δε=εL−εR(M^−1cm^−1).
Diazepam and medium chain fatty acids are known to bind to albumin site II as discussed by T Peters, All about albumin, Academic Press, 1999, p116. The fatty acid molecules are devoid of any CD signal. […] In here, diazepam is used as a marker to show the binding of fatty acids and fatty acid containing molecules to albumin. […] Palmitic acid binds to at least five long chain fatty acid binding sites of which one is closely located to albumin site II as reported by Curry et al. (1998, Nature Structural Biology, 5, 827-835).

A further series addresses T2, BSAff (Bos taurus, UniProt P02769).
T2 construct: Bovine serum albumin essentially fatty acid free; purchased Sigma-Aldrich Company Ltd catalogue number not given; lot 100K7415
Description: Diazepam binding to fatty acid free bovine serum albumin by induced CD. As to conditions: fatty acid 0M/M. As for the experimental part:
BSAff (1.914 mg) was dissolved in distilled water (3.19 ml) to give concentration of 0.6 mg/ml. Diazepam (0.422 mg) was dissolved by sonication for 30 mins in distilled water (3.297 ml) to give a concentration of 0.128 mg/ml. BSAff solution (1.05 ml) was transferred to 2 cm cell and CD spectra was recorded. Diazepam (22 μl) was added to the BSAff in the 2 cm cell and the mixture was gently mixed by rotating the cell several times. The CD spectrum of the mixture was then recorded. The cell was then washed thoroughly with distilled water and ethanol. Distilled water (1.10 ml) was then placed in the 2 cm cell and CD spectrum recorded. CD parameters are as in example 1.

Where [3] appears, read: Staphylococcus aureus, 0.5 h, Table 2, peptide incubation time in mixture 30 min 25° C.
Where [4] appears, read: Staphylococcus aureus, Table 2, peptide incubation time in mixture 2 h 37° C.

T1 sequence (P02768 25-609): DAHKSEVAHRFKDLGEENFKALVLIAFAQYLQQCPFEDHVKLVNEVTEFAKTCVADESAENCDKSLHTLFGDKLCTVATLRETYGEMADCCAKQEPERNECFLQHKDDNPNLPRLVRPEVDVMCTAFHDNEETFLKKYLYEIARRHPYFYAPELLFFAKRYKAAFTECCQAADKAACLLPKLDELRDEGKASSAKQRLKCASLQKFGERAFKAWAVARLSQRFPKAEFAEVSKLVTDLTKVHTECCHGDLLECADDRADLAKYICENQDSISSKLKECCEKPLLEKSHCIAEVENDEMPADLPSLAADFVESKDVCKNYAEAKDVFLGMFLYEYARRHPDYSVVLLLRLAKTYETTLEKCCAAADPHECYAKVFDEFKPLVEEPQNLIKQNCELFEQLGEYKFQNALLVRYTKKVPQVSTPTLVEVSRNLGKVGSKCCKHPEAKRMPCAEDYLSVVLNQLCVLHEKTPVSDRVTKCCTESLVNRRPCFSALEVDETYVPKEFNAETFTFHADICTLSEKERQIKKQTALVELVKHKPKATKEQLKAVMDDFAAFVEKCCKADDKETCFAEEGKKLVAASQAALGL
T2 sequence (P02769 25-607): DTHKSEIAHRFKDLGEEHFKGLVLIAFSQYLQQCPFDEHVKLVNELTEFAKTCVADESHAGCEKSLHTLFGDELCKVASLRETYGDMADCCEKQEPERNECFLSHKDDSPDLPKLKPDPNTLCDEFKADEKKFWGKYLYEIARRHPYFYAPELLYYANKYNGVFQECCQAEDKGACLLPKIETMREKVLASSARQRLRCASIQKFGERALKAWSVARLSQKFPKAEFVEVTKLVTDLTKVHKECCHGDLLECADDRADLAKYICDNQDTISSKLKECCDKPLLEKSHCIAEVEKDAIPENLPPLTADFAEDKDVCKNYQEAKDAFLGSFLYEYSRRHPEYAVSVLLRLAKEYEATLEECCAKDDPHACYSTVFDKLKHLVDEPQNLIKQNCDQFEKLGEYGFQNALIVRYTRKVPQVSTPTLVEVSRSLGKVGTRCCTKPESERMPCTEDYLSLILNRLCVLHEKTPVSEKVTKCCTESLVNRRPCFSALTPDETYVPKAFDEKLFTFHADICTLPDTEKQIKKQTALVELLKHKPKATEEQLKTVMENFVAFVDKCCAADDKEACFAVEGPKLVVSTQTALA
Description for Pronase®: HSA fatty acid free (2.359 mg) was dissolved in distilled water (3.93 ml) to give concentration 0.60 mg/ml. Pronase® (0.363 mg) was dissolved in distilled water (0.605 ml) to give a concentration 0.60 mg/ml.
HSA fatty acid free solution (0.2 ml) was placed in a 0.05 cm cell and the circular dichroism spectrum (CD) was recorded. The cell was then thoroughly washed with distilled water and ethanol. HSA fatty acid free solution (2.7 ml) was placed in a glass vial. Pronase® solution (27 μl) was added to HSA fatty acid free solution in the glass vial. The mixture was mixed gently and 200 μl was transferred to 0.05 cm cell. The cell was then incubated at 37° C. and CD spectra recorded at various incubation time intervals.
CD spectra were recorded with nitrogen flushed JASCO spectropolarimeters J600 4s time constant, 10 nm/min scan speed and a spectral bandwidth of 2 nm. […]
HSA fatty acid free solution (275 μl) was placed in a glass vial. […] Mixture (200 μl) was transferred into a 0.05 cm cell and CD spectrum was recorded. […] The cell was then incubated at 37° C. and CD spectra recorded at various incubation time intervals.
HSA with fatty acid solution (275 μl) was placed in a glass vial. […] Mixture (200 μl) was transferred into a 0.05 cm cell and CD spectrum was recorded. […] The cell was then incubated at 37° C. and CD spectra recorded at various incubation time intervals. […]

As for `CCCCCCCCCCCCCC(=O)N[C@@H](Cc1ccccc1)C(=O)N[C@@H](C)C(=O)N[C@@H](CCCNC(=N)N)C(=O)N[C@@H](CCCCN)C(=O)NCC(=O)N[C@@H](C)C(=O)N[C@@H](CC(C)C)C(=O)N[C@@H](CCCNC(=N)N)C(=O)N[C@@H](CCC(N)=O)C(=O)O` [RH01] (Myristoyl-FARKGALRQ-OH), the “Minimum Inhibitory Concentration E. coli” value in series [1] worked out at 48 µM. In addition, the “potency with HSAff compared to the lipopeptide alone or with HSAfa” value in series [1] (from Table 1) and in series [2] (from Table 1) was “twice as potent” in each case. Besides, the MIC in series [2] (NCTC Oxford, 2 h) stood at 24 µM (≈ 30.2 µg/mL); in series [2] (NCTC Oxford), 12 µM (≈ 15.1 µg/mL). Further, the “stability towards Pronase degradation, comparison in words” value in the series on Pronase® is “stabilises fat free DBax HSA like HSAff”. Moreover, at HSAff (added at different molar ratios, data not shown), the “displacement of diazepam (DZ) from HSAff-DZ (1:1)” value is reported as “decreased induced CD”.

As for `CCCCCCCCCCCCCCCC(=O)NCCCC[C@H](NC(=O)[C@H](CC(N)=O)NC(=O)[C@H](CCCCN)NC(=O)[C@H](CCCCNC(=O)CCCCCCCCCCCCCCC)NC(=O)[C@H](CCCNC(=N)N)NC(=O)[C@H](CC(C)C)NC(=O)[C@H](C)NC(=O)CNC(=O)[C@H](CCCCN)NC(=O)[C@H](CCCNC(=N)N)NC(=O)[C@H](C)NC(=O)[C@H](Cc1ccccc1)NC(=O)[C@H](CCCCN)NC(=O)CCCCCCCCCCCCCCC)C(N)=O` [RH03] (Palmitoyl-KFARKGALRK(Palmitoyl)KNK(Palmitoyl)-NH2), in series [1], the “Minimum Inhibitory Concentration E. coli” value is 441 µM. The “Minimum Inhibitory Concentration S. aureus” value in series [2] (NCTC Oxford) turned out to be 55 µM.

On to “BSAff: bovine serum albumin essentially fatty acid free and essentially globulin-free”, for which, in the series with BSAff, the “induced CD of diazepam bound to BSAff, in words” value is listed as “characteristic induced CD”.

With `CCCCCCCC(=O)O` [CA, caprylic acid, reference compound], the MIC in series [2] (setting [3]) and in series [2] (setting [4]) was > 800 µM in each case.

For `CCCCCCCCCCCCCCCC(=O)NCCCC[C@H](NC(=O)[C@H](CC(N)=O)NC(=O)[C@H](CCCCN)NC(=O)[C@H](CCC(N)=O)NC(=O)[C@H](CCCNC(=N)N)NC(=O)[C@H](CC(C)C)NC(=O)[C@H](C)NC(=O)CNC(=O)[C@H](CCCCN)NC(=O)[C@H](CCCNC(=N)N)NC(=O)[C@H](C)NC(=O)[C@H](Cc1ccccc1)NC(=O)[C@H](CCCCN)NC(=O)CCCCCCCCCCCCCCC)C(N)=O` [RH02] (Palmitoyl-KFARKGALRQKNK(Palmitoyl)-NH2), in series [1], the “Minimum Inhibitory Concentration E. coli” value amounted to 62 µM. For the same compound, the “Minimum Inhibitory Concentration S. aureus” value in series [2] (NCTC Oxford) turned out to be 3.7 µM.

For `CCCCCCCCCCCCCCCC(=O)O` [PA, palmitic acid], the MIC in series [2] (setting [3]) and in series [2] (setting [4]) was > 800 µM throughout. The “percentage of diazepam induced CD” value was 88.5% at HSAff (1 molar equivalent added to the mixture HSAff-diazepam (1:1)), 60.0% at HSAff (2 molar equivalents added to the mixture HSAff-diazepam (1:1)) and 18.6% on HSAff (3 molar equivalents added to the mixture HSAff-diazepam (1:1)).

With `CC(C)C[C@H](NC(=O)[C@H](C)NC(=O)CNC(=O)[C@H](CCCCN)NC(=O)[C@H](CCCNC(=N)N)NC(=O)[C@H](CCCCN)NC(=O)[C@H](Cc1ccccc1)NC(=O)[C@@H](N)CCCCN)C(=O)N[C@@H](CCCNC(=N)N)C(=O)N[C@@H](CCC(N)=O)C(=O)N[C@@H](CCCCN)C(=O)N[C@@H](CC(N)=O)C(=O)N[C@@H](CCCCN)C(N)=O` [RH04], in series [1], the “Minimum Inhibitory Concentration E. coli” value turned out to be 620 µM. The “Minimum Inhibitory Concentration S. aureus” value in series [2] (NCTC Oxford) turned out to be 145 µM.
